Non-standard residues stand in square brackets, D forms with d. Residues, ends and D or L forms follow the SMILES beside them. NMeF = CN[C@@H](Cc1ccccc1)C(=O)O
Target: T1, human NPFF2 (Homo sapiens, UniProt Q9Y5X5)
T1 construct: purchased Perkin Elmer; host or cells: CHO-K1 cell membranes
Experiment: Competitive binding of 125I-1DMe to human NPFF2 receptor membranes
Conditions: membranes of CHO-K1 cells overexpressing NPFF2, 0.1 nM radioligand, Cheng-Prusoff; mean ± SEM; SEM
Method: CHO-K1 cells expressing the GPR10 receptor (Thermo Fisher Scientific Inc., Waltham, MA, USA) were grown according to the manufacturer's instructions. Saturation and competitive binding experiments were performed according to the methods of Motulsky and Neubig. […] The experiments were performed on plated cells that were incubated for 60 min at 25°C. Non-specific binding was determined using 10^−5 M PrRP31. The binding assays involving human NPFF2 receptor membranes obtained from Perkin Elmer were performed as described in [18].
Data are presented as the means ± SEM. The competitive binding curves were plotted using GraphPad software (San Diego, CA, USA), and the best fits were compared for single-binding-site models (IC50 values were obtained from nonlinear regression analysis). Inhibition constants (Ki) were calculated from the IC50 values using the Cheng-Prusoff equation [23]. The concentration of the radioligand was 0.1 nM for cell membranes of CHO-K1 cells overexpressing NPFF2 and 0.03 nM for CHO-K1 cells overexpressing GPR10.

T1 sequence (Q9Y5X5 whole entry): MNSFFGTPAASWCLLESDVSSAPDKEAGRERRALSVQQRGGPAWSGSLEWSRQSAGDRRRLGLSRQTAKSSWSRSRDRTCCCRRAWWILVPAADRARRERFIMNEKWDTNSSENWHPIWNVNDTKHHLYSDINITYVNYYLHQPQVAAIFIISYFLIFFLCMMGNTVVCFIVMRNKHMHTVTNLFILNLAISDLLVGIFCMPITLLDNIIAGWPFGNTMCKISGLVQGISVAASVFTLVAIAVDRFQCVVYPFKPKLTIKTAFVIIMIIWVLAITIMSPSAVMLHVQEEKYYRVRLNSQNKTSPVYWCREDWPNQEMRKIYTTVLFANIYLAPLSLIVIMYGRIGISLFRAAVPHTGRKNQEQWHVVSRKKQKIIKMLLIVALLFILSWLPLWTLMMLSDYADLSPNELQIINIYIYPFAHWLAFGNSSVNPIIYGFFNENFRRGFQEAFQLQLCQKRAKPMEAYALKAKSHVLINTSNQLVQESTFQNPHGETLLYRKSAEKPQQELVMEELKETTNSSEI

Row | Compound | Ki [nM]
1 | CC[C@H](C)[C@H](NC(=O)CNC(=O)[C@H](CCCNC(=N)N)NC(=O)[C@H](CO)NC(=O)[C@H](C)NC(=O)[C@H](Cc1ccc(O)cc1)NC(=O)[C@H](Cc1c[nH]c2ccccc12)NC(=O)[C@H](C)NC(=O)[C@@H]1CCCN1C(=O)[C@H](CC(N)=O)NC(=O)[C@@H](NC(=O)[C@H](CC(=O)O)NC(=O)[C@@H]1CCCN1C(=O)[C@@H](NC(=O)[C@H](CCCNC(=N)N)NC(=O)[C@@H](NC(=O)[C@H](CCC(=O)O)NC(=O)[C@H](CCSC)NC(=O)[C@H](CO)NC(=O)[C@H](Cc1c[nH]cn1)NC(=O)[C@H](CCCNC(=N)N)NC(=O)[C@H](Cc1c[nH]cn1)NC(=O)[C@@H](NC(=O)[C@H](CCCNC(=N)N)NC(=O)[C@@H](N)CO)[C@@H](C)O)[C@@H](C)CC)[C@@H](C)O)[C@@H](C)CC)C(=O)N[C@@H](CCCNC(=N)N)C(=O)N1CCC[C@H]1C(=O)N[C@H](C(=O)NCC(=O)N[C@@H](CCCNC(=N)N)C(=O)N[C@@H](Cc1ccccc1)C(N)=O)C(C)C [human PrRP31, reference compound] | 50 ± 24.3
2 | CC(C)C[C@H](NC(=O)[C@H](N)Cc1ccc(O)cc1)C(=O)N(C)[C@@H](Cc1ccccc1)C(=O)N[C@@H](CCC(N)=O)C(=O)N1CCC[C@H]1C(=O)N[C@@H](CCC(N)=O)C(=O)N[C@@H](CCCN=C(N)N)C(=O)N[C@@H](Cc1ccccc1)C(N)=O [1DMe, reference compound] (H-[dY]L[NMeF]QPQRF-NH2) | 1.8 ± 0.54

From article PMC5562305, “Impact of novel palmitoylated prolactin-releasing peptide analogs on metabolic changes in mice with diet-induced obesity” (PLoS ONE, 2017)
